Data published in patent US20180311199A1, “COMBINATION TREATMENT FOR INFLAMMATORY DISEASES” (priority 2016, published 2018).

Legend:
[1] = system: pro-inflammatory genes regulated by M5; assay: Inflammatory Response and Autoimmune PCR Array on RNA of M5-treated primary human keratinocytes; type: cell-based; details: diacerein 10 μM, infliximab 5 μg/ml; for number of genes in which the greatest effect was seen: of 48 genes partially or fully reversed by all three groups, keratinocytes + M5, 24 hours; for number of genes on which the effect of the five cytokines was partially or fully reversed: of 81 pro-inflammatory genes significantly (p<0.05) regulated at least 2-fold by M5, keratinocytes, 24 hours
Procedure: (§1) Experiments were carried out to investigate the effect of combined anti-TNF-α (infliximab) and diacerein, an inhibitor for a pro-inflammatory cytokine interleukin-1, utilizing an in vivo-equivalent psoriasis cell culture system. This in vivo-equivalent model is generated by using a group of 5 different natural chemicals (M5: IL-17A, IL-22, Oncostatin-M, IL-1α, and TNF-α) on human epidermal cells keratinocytes, recapitulating the in vivo immune dysregulation as identified in vivo in the skin lesions of patients affected by psoriasis (Guilloteau et al., Skin Inflammation Induced by the Synergistic Action of IL-17A, IL-22, Oncostatin M, IL-1α, and TNF-α Recapitulates Some Features of Psoriasis. Journal of Immunology 2010; 184:5263-70). Thus, this in vivo-equivalent model provides an excellent tool for the investigation of the combined effect of anti-TNF-α and diacerein on psoriasis.
The experiments were carried out in the following manner: Primary human keratinocytes (purchased from Invitrogen, Carlsbad, Calif.) Epilife culture medium supplemented with human keratinocyte growth supplement (Invitrogen) in standard humidified chamber (37° C., 5% CO2). When the cells reached 80% confluency, cells were divided into 5 groups for treatment: • 1). Cell culture medium alone, serving as a negative control • 2). Cell culture medium plus 5 natural chemicals (M5) • 3). Cell culture medium plus 5 natural chemicals (M5) and anti-TNF-alpha (infliximab) • 4). Cell culture medium plus 5 natural chemicals (M5) and diacerein • 5). Cell culture medium plus 5 natural chemicals (M5), anti-TNF-alpha (infliximab) and diacerein.
The above 5 groups were incubated at 37° C. for 24 hours.
The concentrations and commercial sources of the experiment components are: • IL-17 alpha (10 ng/ml, Life Technologies, Frederick, Md.) • IL-22 (10 ng/ml. Life Technologies, Frederick, Md.) • Oncostatin-M (10 ng/ml, Life Technologies, Frederick, Md.) • IL-1 alpha (10 ng/ml, Life Technologies, Frederick, Md.) • TNF-alpha ([…], Life Technologies, Frederick, Md.) • Diacerein (10 μM, Sigma Aldrich, Saint Louis, Md.) • Infliximab (Remicade®, an anti-TNF-alpha, 5 μg/ml, Jansen Biotech, Horsham, Pa.)
After 24 hours of incubation, the cultured cells were washed three times with sterile PBS (phosphate-buffered saline) and the RNAs were harvested with Trizol (Invitrogen) and the purity (A260/A280 ratio>1.8) was confirmed. Reverse transcription was performed with 1 micro gram RNA using first strand kit from Invitrogen according to manufacturer's instruction. 10 μl of mastermix (Qiagen, Valencia, Calif.) with the reversely transcribed cDNA were amplified using a real-time PCR machine (ViiA7 PCR, Applied Biosystems, Waltham, Pa.). Statistical analysis was performed with web-based Software. […]

[2] = system: IL-6, IL-19, G-CSF, S100AB, and NAP-2; assay: ELISA of cytokine proteins in culture supernatant of M5-treated primary human keratinocytes (psoriasis cell culture model); type: cell-based; details: of five gene products (IL-6, IL-19, G-CSF, S100AB, NAP-2), primary human keratinocytes + M5, 24 hours, diacerein 10 μM, infliximab 5 μg/ml
Procedure: as §1, with “Thus, this in vivo-equivalent model provides an excellent tool for the investigation of the combined effect of anti-TNF-α and diacerein on psoriasis.” left out
After 24 hours of incubation, the culture media (supernatant) of the above 5 groups were collected and stored at −20° C. for ELISA experiments as the following: 50-100 μl of cell culture supernatant were assayed with commercially available ELISA kits for human cytokines according to the manufacturers' instructions (IL-6, IL-19, G-CSF, S100AB, and NAP-2). The data we collected determined that infliximab alone (group 3), diacerein alone (group 4), and combined infliximab and diacerein (group 5) partially or completely reverse the dysregulation effect of the 5 natural chemicals (M5) in five, three, and five genes, respectively. […]

infliximab
number of genes in which the greatest effect was seen [1]: 10 genes | number of genes on which the effect of the five cytokines was partially or fully reversed [1]: 67 genes | number of genes in which the dysregulation effect of the 5 natural chemicals (M5) is partially or completely reversed [2]: five

CC(=O)Oc1cccc2c1C(=O)c1c(OC(C)=O)cc(C(=O)O)cc1C2=O [diacerein]
number of genes in which the greatest effect was seen [1]: 17 genes | number of genes on which the effect of the five cytokines was partially or fully reversed [1]: 61 genes | number of genes in which the dysregulation effect of the 5 natural chemicals (M5) is partially or completely reversed [2]: three
